Data reported in ChEMBL document CHEMBL1132568, “Synthesis, pharmacological evaluation, and structure-activity relationship and quantitative structure-activity relationship studies on novel derivatives of 2,4-diamino-6,7-dimethoxyquinazoline alpha1-adrenoceptor antagonists” (J Med Chem, 1999).

These compounds were tested against T1, 5-hydroxytryptamine receptor 1A (Rattus norvegicus, UniProt P19327) (assay: Inhibitory concentration against 5-hydroxytryptamine 1A receptor (Inactive at >1000 nM concentration)).
T1 sequence (P19327 whole entry): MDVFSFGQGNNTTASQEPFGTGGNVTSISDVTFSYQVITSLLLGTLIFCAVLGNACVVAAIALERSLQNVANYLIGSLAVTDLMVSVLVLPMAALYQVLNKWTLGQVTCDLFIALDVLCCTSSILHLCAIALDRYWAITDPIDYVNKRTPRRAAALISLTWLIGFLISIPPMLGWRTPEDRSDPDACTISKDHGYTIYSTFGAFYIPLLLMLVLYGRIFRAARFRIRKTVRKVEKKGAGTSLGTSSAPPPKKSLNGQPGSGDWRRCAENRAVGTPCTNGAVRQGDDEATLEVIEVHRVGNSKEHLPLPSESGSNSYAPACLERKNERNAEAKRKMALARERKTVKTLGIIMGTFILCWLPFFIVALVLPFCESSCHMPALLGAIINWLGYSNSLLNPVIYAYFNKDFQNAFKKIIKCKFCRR

Compound	IC50
COc1cc2nc(N3CCNCC3)nc(N)c2cc1OC	> 1000 nM
COc1cc2nc(N[C@H](C)Cc3ccc(OC)c(S(N)(=O)=O)c3)nc(N)c2cc1OC	> 1000 nM
COc1cc2nc(N3CCN(C(=O)C(C)(C)Oc4ccccc4OC)CC3)nc(N)c2cc1OC	> 1000 nM
COc1cc2nc(N3CCN(C(=O)C(C)(C)Oc4c(OC)cccc4C(C)C)CC3)nc(N)c2cc1OC	> 1000 nM
COc1cc2nc(N(C)Cc3ccccc3)nc(N)c2cc1OC	> 1000 nM
COc1cc2nc(N(C)CCC(c3ccccc3)c3ccccc3)nc(N)c2cc1OC	> 1000 nM
COc1cc2c(cc1OC)CN(c1nc(N)c3cc(OC)c(OC)cc3n1)CC2	> 1000 nM
COc1cc2nc(N3CCN(C(=O)c4ccccc4)CC3)nc(N)c2cc1OC	> 1000 nM
COc1cc2nc(N3CCN(C(C)=O)CC3)nc(N)c2cc1OC	> 1000 nM
COc1cc2nc(N3CCc4ccccc4C3)nc(N)c2cc1OC	> 1000 nM
COc1cc2nc(N3CCN(C(c4ccccc4)c4ccccc4)CC3)nc(N)c2cc1OC	> 1000 nM

What follows are compounds tested against T2, Adrenergic receptor alpha-1 (Rattus norvegicus, UniProt P15823+P23944+P43140) (assay: Inhibition of Alpha-1 adrenergic receptor in rat cortex membrane).
T2 sequence (P15823 whole entry): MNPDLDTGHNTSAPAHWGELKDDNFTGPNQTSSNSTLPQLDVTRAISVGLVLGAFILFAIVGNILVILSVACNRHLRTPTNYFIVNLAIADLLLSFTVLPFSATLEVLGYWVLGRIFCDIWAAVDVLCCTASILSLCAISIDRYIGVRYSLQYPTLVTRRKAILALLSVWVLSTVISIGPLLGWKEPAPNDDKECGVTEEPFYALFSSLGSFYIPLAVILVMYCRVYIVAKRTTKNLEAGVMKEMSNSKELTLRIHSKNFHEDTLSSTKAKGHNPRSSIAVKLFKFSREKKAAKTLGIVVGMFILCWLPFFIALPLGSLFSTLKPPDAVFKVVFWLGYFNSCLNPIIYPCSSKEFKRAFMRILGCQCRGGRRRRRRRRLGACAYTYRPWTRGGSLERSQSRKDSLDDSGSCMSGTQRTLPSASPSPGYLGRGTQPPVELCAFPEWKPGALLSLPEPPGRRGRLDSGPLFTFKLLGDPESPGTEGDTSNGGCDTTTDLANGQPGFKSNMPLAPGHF
T2 sequence (P23944 whole entry): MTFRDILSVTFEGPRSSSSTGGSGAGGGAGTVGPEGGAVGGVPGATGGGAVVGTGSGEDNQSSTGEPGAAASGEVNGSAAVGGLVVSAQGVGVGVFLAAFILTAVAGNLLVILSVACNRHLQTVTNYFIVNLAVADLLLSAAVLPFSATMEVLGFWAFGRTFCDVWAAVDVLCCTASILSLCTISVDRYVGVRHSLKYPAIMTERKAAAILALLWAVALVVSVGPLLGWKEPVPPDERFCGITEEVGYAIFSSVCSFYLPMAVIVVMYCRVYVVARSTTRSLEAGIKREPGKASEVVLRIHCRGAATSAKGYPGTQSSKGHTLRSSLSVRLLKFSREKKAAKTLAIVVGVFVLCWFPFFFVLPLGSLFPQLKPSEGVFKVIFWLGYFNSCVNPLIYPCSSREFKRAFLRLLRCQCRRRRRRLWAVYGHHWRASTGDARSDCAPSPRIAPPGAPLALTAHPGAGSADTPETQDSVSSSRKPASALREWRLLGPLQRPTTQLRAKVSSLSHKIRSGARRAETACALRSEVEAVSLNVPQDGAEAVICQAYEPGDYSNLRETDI
T2 sequence (P43140 whole entry): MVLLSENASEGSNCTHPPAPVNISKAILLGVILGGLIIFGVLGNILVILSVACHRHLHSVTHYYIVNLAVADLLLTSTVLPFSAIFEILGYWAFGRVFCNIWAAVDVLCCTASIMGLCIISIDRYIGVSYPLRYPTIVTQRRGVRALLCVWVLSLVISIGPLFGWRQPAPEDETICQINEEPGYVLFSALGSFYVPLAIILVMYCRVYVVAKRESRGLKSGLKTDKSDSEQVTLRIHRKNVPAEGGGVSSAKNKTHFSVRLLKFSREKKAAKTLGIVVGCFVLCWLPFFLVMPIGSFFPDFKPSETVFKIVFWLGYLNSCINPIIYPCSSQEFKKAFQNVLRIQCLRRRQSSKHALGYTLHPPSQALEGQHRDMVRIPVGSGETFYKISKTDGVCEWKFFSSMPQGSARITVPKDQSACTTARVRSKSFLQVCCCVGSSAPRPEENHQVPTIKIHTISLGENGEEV
Format: cell membranes

Compound	IC50
COc1cc2nc(N3CCNCC3)nc(N)c2cc1OC	340 nM
COc1cc2nc(N[C@H](C)Cc3ccc(OC)c(S(N)(=O)=O)c3)nc(N)c2cc1OC	3140 nM
COc1cc2nc(N3CCN(C(=O)C(C)(C)Oc4ccccc4OC)CC3)nc(N)c2cc1OC	49 nM
COc1cc2nc(N3CCN(C(=O)C(C)(C)Oc4c(OC)cccc4C(C)C)CC3)nc(N)c2cc1OC	1180 nM
COc1cc2nc(N(C)Cc3ccccc3)nc(N)c2cc1OC	70 nM
COc1cc2nc(N(C)CCC(c3ccccc3)c3ccccc3)nc(N)c2cc1OC	85 nM
COc1cc2c(cc1OC)CN(c1nc(N)c3cc(OC)c(OC)cc3n1)CC2	0.2 nM
COc1cc2nc(N3CCN(C(=O)c4ccccc4)CC3)nc(N)c2cc1OC	4.6 nM
COc1cc2nc(N3CCN(C(C)=O)CC3)nc(N)c2cc1OC	45 nM
COc1cc2nc(N3CCc4ccccc4C3)nc(N)c2cc1OC	4.1 nM
COc1cc2nc(N3CCN(C(c4ccccc4)c4ccccc4)CC3)nc(N)c2cc1OC	40 nM

What follows are compounds tested against D(2) dopamine receptor (Rattus norvegicus, UniProt P61169) (assay: Inhibitory concentration against Dopamine receptor D2 (Inactive at >1000 nM concentration)).
Chain of D(2) dopamine receptor (P61169 whole entry): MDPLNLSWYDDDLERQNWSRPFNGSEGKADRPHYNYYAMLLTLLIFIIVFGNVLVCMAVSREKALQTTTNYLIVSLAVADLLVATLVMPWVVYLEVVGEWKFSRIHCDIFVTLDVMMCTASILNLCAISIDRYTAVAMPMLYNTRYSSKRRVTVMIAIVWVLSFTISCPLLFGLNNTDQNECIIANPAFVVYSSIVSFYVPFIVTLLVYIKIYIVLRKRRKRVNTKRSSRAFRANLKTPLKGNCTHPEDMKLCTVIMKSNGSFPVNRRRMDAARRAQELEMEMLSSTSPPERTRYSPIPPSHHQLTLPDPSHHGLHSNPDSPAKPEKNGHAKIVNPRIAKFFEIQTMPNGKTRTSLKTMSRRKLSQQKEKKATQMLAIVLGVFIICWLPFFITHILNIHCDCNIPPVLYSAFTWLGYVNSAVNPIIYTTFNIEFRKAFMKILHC

Compound	IC50
COc1cc2nc(N3CCNCC3)nc(N)c2cc1OC	> 1000 nM
COc1cc2nc(N[C@H](C)Cc3ccc(OC)c(S(N)(=O)=O)c3)nc(N)c2cc1OC	> 1000 nM
COc1cc2nc(N3CCN(C(=O)C(C)(C)Oc4ccccc4OC)CC3)nc(N)c2cc1OC	> 1000 nM
COc1cc2nc(N3CCN(C(=O)C(C)(C)Oc4c(OC)cccc4C(C)C)CC3)nc(N)c2cc1OC	> 1000 nM
COc1cc2nc(N(C)Cc3ccccc3)nc(N)c2cc1OC	> 1000 nM
COc1cc2nc(N(C)CCC(c3ccccc3)c3ccccc3)nc(N)c2cc1OC	> 1000 nM
COc1cc2c(cc1OC)CN(c1nc(N)c3cc(OC)c(OC)cc3n1)CC2	> 1000 nM
COc1cc2nc(N3CCN(C(=O)c4ccccc4)CC3)nc(N)c2cc1OC	> 1000 nM
COc1cc2nc(N3CCN(C(C)=O)CC3)nc(N)c2cc1OC	> 1000 nM
COc1cc2nc(N3CCc4ccccc4C3)nc(N)c2cc1OC	> 1000 nM
COc1cc2nc(N3CCN(C(c4ccccc4)c4ccccc4)CC3)nc(N)c2cc1OC	> 1000 nM

What follows are compounds tested against 5-hydroxytryptamine receptor 2A (Rattus norvegicus, UniProt P14842) (assay: Inhibitory concentration against 5-hydroxytryptamine 2A receptor (Inactive at >1000 nM concentration)).
Chain of 5-hydroxytryptamine receptor 2A (P14842 whole entry): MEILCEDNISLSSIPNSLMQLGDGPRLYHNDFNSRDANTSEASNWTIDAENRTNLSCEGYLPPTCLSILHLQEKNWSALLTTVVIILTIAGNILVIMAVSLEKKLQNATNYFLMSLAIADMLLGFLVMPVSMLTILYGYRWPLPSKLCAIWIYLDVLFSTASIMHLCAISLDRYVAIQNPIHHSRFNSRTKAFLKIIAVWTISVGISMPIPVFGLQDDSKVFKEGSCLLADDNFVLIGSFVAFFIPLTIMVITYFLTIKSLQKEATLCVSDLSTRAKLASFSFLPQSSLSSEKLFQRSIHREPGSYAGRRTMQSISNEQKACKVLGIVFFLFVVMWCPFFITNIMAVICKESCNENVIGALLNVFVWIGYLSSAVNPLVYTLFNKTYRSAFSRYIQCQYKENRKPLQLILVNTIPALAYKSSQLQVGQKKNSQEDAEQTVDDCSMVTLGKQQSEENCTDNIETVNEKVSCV

Compound	IC50
COc1cc2nc(N3CCNCC3)nc(N)c2cc1OC	> 1000 nM
COc1cc2nc(N[C@H](C)Cc3ccc(OC)c(S(N)(=O)=O)c3)nc(N)c2cc1OC	> 1000 nM
COc1cc2nc(N3CCN(C(=O)C(C)(C)Oc4ccccc4OC)CC3)nc(N)c2cc1OC	> 1000 nM
COc1cc2nc(N3CCN(C(=O)C(C)(C)Oc4c(OC)cccc4C(C)C)CC3)nc(N)c2cc1OC	> 1000 nM
COc1cc2nc(N(C)Cc3ccccc3)nc(N)c2cc1OC	> 1000 nM
COc1cc2nc(N(C)CCC(c3ccccc3)c3ccccc3)nc(N)c2cc1OC	> 1000 nM
COc1cc2c(cc1OC)CN(c1nc(N)c3cc(OC)c(OC)cc3n1)CC2	> 1000 nM
COc1cc2nc(N3CCN(C(=O)c4ccccc4)CC3)nc(N)c2cc1OC	> 1000 nM
COc1cc2nc(N3CCN(C(C)=O)CC3)nc(N)c2cc1OC	> 1000 nM
COc1cc2nc(N3CCc4ccccc4C3)nc(N)c2cc1OC	> 1000 nM
COc1cc2nc(N3CCN(C(c4ccccc4)c4ccccc4)CC3)nc(N)c2cc1OC	> 1000 nM

What follows are compounds tested against T3, Adrenergic receptor alpha-2 (Rattus norvegicus, UniProt P22086+P19328+P22909) (assay: Inhibitory concentration against Alpha-2 adrenergic receptor).
T3 sequence (P22086 whole entry): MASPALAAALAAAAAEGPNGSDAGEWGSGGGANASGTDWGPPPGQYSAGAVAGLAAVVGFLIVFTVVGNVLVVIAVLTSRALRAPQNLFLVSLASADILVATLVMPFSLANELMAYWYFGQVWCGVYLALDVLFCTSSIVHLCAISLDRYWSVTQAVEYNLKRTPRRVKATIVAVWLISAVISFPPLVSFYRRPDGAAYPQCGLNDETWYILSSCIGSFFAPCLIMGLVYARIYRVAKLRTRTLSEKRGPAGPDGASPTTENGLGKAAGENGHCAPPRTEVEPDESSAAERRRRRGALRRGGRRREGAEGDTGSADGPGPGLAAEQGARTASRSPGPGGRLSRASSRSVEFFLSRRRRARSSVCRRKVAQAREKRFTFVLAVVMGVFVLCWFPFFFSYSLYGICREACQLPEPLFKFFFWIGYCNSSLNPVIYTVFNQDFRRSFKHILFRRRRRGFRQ
T3 sequence (P19328 whole entry): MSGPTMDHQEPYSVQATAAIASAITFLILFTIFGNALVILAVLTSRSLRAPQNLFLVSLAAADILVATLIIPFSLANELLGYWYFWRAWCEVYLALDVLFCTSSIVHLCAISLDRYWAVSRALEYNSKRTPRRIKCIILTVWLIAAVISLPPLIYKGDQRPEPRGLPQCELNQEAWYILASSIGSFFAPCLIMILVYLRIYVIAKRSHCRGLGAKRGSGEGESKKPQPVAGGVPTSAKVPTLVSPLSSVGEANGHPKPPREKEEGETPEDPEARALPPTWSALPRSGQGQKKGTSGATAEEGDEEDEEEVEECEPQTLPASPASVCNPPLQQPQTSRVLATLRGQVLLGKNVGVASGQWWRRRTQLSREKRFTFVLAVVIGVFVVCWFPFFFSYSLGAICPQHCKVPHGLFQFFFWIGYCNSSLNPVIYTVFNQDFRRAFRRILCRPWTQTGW
T3 sequence (P22909 whole entry): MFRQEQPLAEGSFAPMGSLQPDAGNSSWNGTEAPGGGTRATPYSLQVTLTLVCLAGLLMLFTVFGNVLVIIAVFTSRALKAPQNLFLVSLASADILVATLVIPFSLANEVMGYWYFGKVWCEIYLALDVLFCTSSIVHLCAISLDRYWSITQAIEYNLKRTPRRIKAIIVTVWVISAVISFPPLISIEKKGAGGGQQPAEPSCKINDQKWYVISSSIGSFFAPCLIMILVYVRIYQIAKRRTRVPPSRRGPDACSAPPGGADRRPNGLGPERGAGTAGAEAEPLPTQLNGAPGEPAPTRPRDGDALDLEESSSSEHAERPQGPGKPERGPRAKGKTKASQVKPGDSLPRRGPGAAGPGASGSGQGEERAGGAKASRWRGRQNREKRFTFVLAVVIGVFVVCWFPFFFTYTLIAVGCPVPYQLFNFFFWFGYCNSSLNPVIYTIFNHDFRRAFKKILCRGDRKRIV
Format: protein assay

Compound	IC50
COc1cc2nc(N3CCNCC3)nc(N)c2cc1OC	> 1000 nM
COc1cc2nc(N[C@H](C)Cc3ccc(OC)c(S(N)(=O)=O)c3)nc(N)c2cc1OC	> 1000 nM
COc1cc2nc(N3CCN(C(=O)C(C)(C)Oc4ccccc4OC)CC3)nc(N)c2cc1OC	> 1000 nM
COc1cc2nc(N3CCN(C(=O)C(C)(C)Oc4c(OC)cccc4C(C)C)CC3)nc(N)c2cc1OC	> 1000 nM
COc1cc2nc(N(C)Cc3ccccc3)nc(N)c2cc1OC	> 1000 nM
COc1cc2nc(N(C)CCC(c3ccccc3)c3ccccc3)nc(N)c2cc1OC	> 1000 nM
COc1cc2c(cc1OC)CN(c1nc(N)c3cc(OC)c(OC)cc3n1)CC2	> 1000 nM
COc1cc2nc(N3CCN(C(=O)c4ccccc4)CC3)nc(N)c2cc1OC	> 1000 nM
COc1cc2nc(N3CCN(C(C)=O)CC3)nc(N)c2cc1OC	> 1000 nM
COc1cc2nc(N3CCc4ccccc4C3)nc(N)c2cc1OC	> 1000 nM
COc1cc2nc(N3CCN(C(c4ccccc4)c4ccccc4)CC3)nc(N)c2cc1OC	> 1000 nM
